Experimental data: patent publication US8030293B2, “Methods of optimizing drug therapeutic efficacy for treatment of immune-mediated gastrointestinal disorders” (Hopital-Sainte-Justine, priority 1998, dated 2011)
Like-named read-outs stand apart in the source and are kept apart here. Marks after values point to notes of the source that are not given here. Blank lines part the entries; values can stand above or below the molecule they belong to.

Assays:
[1] = human, in vivo
Method: All but 7 patients were given AZA.
Toxicity was measured essentially as described previously (Cuffari et al., supra; 1996a).

[2] = 6-MP metabolite levels by gender and age in pediatric IBD patients (Example III); type: in vivo, human; conditions: for 6-MMP level / 6-TG level: TPMT wild type
Method: These patients were wild type for TPMT. Patients were assessed based on gender and age as it relates to puberty. Puberty is established at 12 years of age in girls and 14 years of age in boys.

[3] = erythrocytes
Description: The 93 patients were pediatric patients, with 80 diagnosed as having CD, 8 diagnosed as having UC, and 5 diagnosed as having indeterminate colitis (CD or UC). All but 7 patients were given AZA. The dosages were converted to 6-MP equivalents using a factor of 2.07 as described in Example I. For some patients, two or more samples were obtained and analyzed. Response to 6-MP was defined by clinical remission (HBI<5, closed fistula) without corticosteroids. Disease activity and physical exam were ascertained at each clinic visit at which 6-MP metabolite levels were determined (clinical evaluation point). Hematological, pancreatic and hepatic laboratory parameters were evaluated simultaneously Erythrocyte 6-TG and 6-MMP concentrations (pmol/8×10^8 RBC) were measured by HPLC (Cuffari et al., supra, 1996a).
The number of samples corresponds to the number of different samples obtained from the 93 patients.

[4] = Responsiveness to 6-MP drug therapy by TPMT genotype in IBD patients (Example IV); type: in vivo, human
Method: (§1) The genotype of TPMT was determined in IBD patients that were responders and non responders. Genotyping of TPMT was measured essentially as described previously (Baccichet et al., Leuk. Res. 21:817-823 (1997); Zietkiewicz et al., Gene 205:161-171 (1997)).

[5] = 6-TG levels by TPMT genotype in IBD patients (Example IV); type: in vivo, human; conditions: for mean 6-TG: in pmol/8×10^8 RBC
Method: as §1, with “(1997)). […] All heterozygote patients were responders to 6-MP.” for “(1997)).”

[6] = Erythrocyte 6-MP metabolite levels by reverse phase HPLC in IBD patients on 6-MP drug (Example I); conditions: erythrocytes
Method: Briefly, blood was sampled (n=89) prior to daily administration of 6-MP in 55 IBD patients (CD n=51, UC n=4) receiving 1-1.5 mg/kg/day over at least a 4 month period (≧4 mo.). When AZA was administered, a conversion factor of 2.07 was used to convert to the equivalent 6-MP dose. Twice as much AZA is administered relative to 6-MP to have an equivalent dose of 6-MP.
Erythrocyte 6-TG, 6-MMP and 6-MP thiobases were measured (pmol/8×10^8 RBC) using reverse phase HPLC. Briefly, blood samples were collected in EDTA (ethylene diamine tetraacetic acid) as anticoagulant. Cells were centrifuged and washed three times with an equal volume of 0.9% saline. Washed packed cells were stored at −70° C. until analysis was performed.
For acid hydrolysis, 500 μl deionized H2O, 50 μl thawed red blood cells, 40 μl of the appropriate standard or control, 500 μl 3.0 NH2SO4, and 300 μl 10 mM dithiothreitol (DTT) was added to an 8 ml glass screw cap tube. The capped tubes were placed in a heating block preheated to 100° C. and hydrolyzed. For 6-MMP, hydrolysis was carried out for 5 hours. For 6-MP and 6-TG, hydrolysis was carried out for 1 hour. After the incubation, tubes were cooled in a room temperature water bath. To tubes hydrolyzed for 5 hours (6-MMP), 400 μl 3.4 N NaOH and 1.0 ml 2 M Tris buffer, pH 9.0 was added. To tubes hydrolyzed for 1 hour (6-MP/6-TG), 450 μl 3.4 N NaOH and 500 μl 2M Tris base was added. A volume of 4 ml 0.03% phenylmercuric chloride in methylene chloride was added to each tube. The tubes were capped and lightly agitated on a bi-directional rotator (15 min for 6-MMP and 30 min for 6-MP/6-TG). The contents were transferred to a 15 ml polypropylene centrifuge tube and centrifuged at 3500 rpm for 3 min at 10° C. The aqueous phase (top layer) was discarded, and 3.0 ml of the organic phase (bottom layer) was transferred to a clean 15 ml polypropylene centrifuge tube. The analytes in the organic phase were back extracted by adding 225 μl 0.1 N HCl and lightly mixing on an orbital rotator for 5 min. Following vortexing for 30 seconds, the tubes were centrifuged at 3500 rpm for 3 min at 10° C.
For 6-MMP analysis, 50 μl analyte was analyzed on a C18 reverse phase column with the mobile phase containing 1 mM DTT, 2.078% triethylamine and 4% methanol, adjusted to pH 3.2 with concentrated H3PO4. For 6-MP and 6-TG analysis, 100 μl analyte was analyzed on a C18 reverse phase column using 0.1 M H3PO4 and 1 mM DTT in H2O as the mobile phase.
Clinical remission was defined as a Harvey Bradshaw Index <5 in those patients off corticosteroids or weaned to a level of prednisone ≦0.4 mg/kg/od (administered every other day). Treatment failures were defined as non-responders (HBI>5 or steroid dependence) or cessation of 6-MP due to side effects.

Ratio 6-MMP/6-TG ([2]; Boys (0-14 y)): 17.24 | 6-MMP level ([2]; Boys (0-14 y), 51 observed): 3681.6 pmol per 8 × 10^8 RBC | 6-MMP level ([2]; Boys (>14 y), 104 observed, p<0.001): 1662.3* pmol per 8 × 10^8 RBC | Ratio 6-MMP/6-TG ([2]; Boys (>14 y), p<0.001): 6.78* | Ratio 6-MMP/6-TG ([2]; Girls (0-12 y)): 18.52 | 6-MMP level ([2]; Girls (0-12 y), 39 observed): 3447.0 pmol per 8 × 10^8 RBC | Ratio 6-MMP/6-TG ([2]; Girls (>12 y)): 12.55 | 6-MMP level ([2]; Girls (>12 y), 116 observed): 3304.5 pmol per 8 × 10^8 RBC | Median 6-MMP ([3]; Relapse, n=72 samples): 1602 pmol/8×10^8 RBC | Median 6-MMP ([3]; Remission, n=106 samples): 2600 pmol/8×10^8 RBC
Structure (SMILES): CSc1ncnc2nc[nH]c12 [6-MMP, 6-methyl-mercaptopurine]
6-MMP level associated with hepatotoxicity [1]: greater than 7000 pmol 6-MMP/8×10^8

Structure (SMILES): Sc1ncnc2nc[nH]c12 [6-MP, 6-Mercaptopurine]
response of TPMT heterozygotes to 6-MP ([4]; 8 of 93 patients heterozygotes): All 8 heterozygotes responded | Non. responder ([4]; TPMT Heterozygote IBD patients): 0% | Responder ([4]; TPMT Heterozygote IBD patients): 100% | Non. responder ([4]; TPMT Normal IBD patients): 45% | Responder ([4]; TPMT Normal IBD patients): 55%

6-TG level ([2]; Boys (0-14 y), 51 observed): 235.0 pmol per 8 × 10^8 RBC | 6-TG level ([2]; Boys (>14 y), 104 observed): 222.5 pmol per 8 × 10^8 RBC | 6-TG level ([2]; Girls (0-12 y), 39 observed): 182.2 pmol per 8 × 10^8 RBC | 6-TG level ([2]; Girls (>12 y), 116 observed): 217.2 pmol per 8 × 10^8 RBC | mean 6-TG ([5]; TPMT Heterozygote patients, p less than 0.0001): 589* | mean 6-TG ([5]; TPMT Normal patients): 247 | 6-TG levels of TPMT heterozygotes ([5]; all 8 heterozygotes): > 230 pmol/8×10^8 RBC | median 6-TG ([3]; Relapse, n=72 samples): 197 pmol/8×10^8 RBC | median 6-TG ([3]; Remission, n=106 samples, p<0.0001): 309* pmol/8×10^8 RBC | median 6-TG ([6]; Non-responders, n=31, p<0.001): 184* pmol per 8×10^8 RBC | median 6-TG ([6]; Responders, n=58 samples, 6-MP 1-1.5 mg/kg/day ≥4 mo.): 295 pmol per 8×10^8 RBC
Structure (SMILES): Nc1nc2nc[nH]c2c(=S)[nH]1 [6-TG, 6-thioguanine]
median 6-TG ([6]; Hematologic toxicity group, n=6, p<0.03): 414+ pmol per 8×10^8 RBC | median 6-TG ([6]; Hepatic toxicity group, n=7): 258 pmol per 8×10^8 RBC | median 6-TG ([6]; Pancreatic toxicity group, n=6): 211 pmol per 8×10^8 RBC
